{
  "source": "paper PMC10787068",
  "about": "“Targeting the Mitochondrial Chaperone TRAP1 Alleviates Vascular Pathologies in Ischemic Retinopathy” (Advanced Science, 2023)",
  "assay_type_in_all_cases": "cell-based, human",
  "key": {"[1]": {"tested_on": "MIO‐M1 cells", "assay": "Cytoplasmic calcium (Fluo‐4 AM) in MIO‐M1 cells", "conditions": "Fluo‐4 AM‐labeled MIO‐M1 cells under hypoxia; MitoQ 6 h, thapsigargin 30 min", "protocol": "(§1) Figure 5 TRAP1 inhibition induces mPTP opening, mitochondrial calcium discharge, and calpain‐1 activation. A) Visualization of cytoplasmic calcium. Fluo‐4 AM‐labeled MIO‐M1 cells were incubated with the TRAP1 inhibitors gamitrinib and MitoQ^[ [32], [41] ^] for 6 h or thapsigargin for 30 min under hypoxia, and analyzed by confocal microscopy. Scale bars, 10 µm and 2 µm (inset). […] MIO‐M1 cells were treated with a TRAP1 inhibitor, 3 µM gamitrinib or 0.5 µM MitoQ, for 6 h under hypoxia (n = 4). Enzyme activity was measured using a fluorogenic calpain substrate as described in the Experimental Section. C) Restored HIF1α expression upon CypD inhibition. MIO‐M1 cells were incubated with control or CypD‐targeting siRNAs, treated with the TRAP1 inhibitor MitoQ for 6 h under hypoxia, harvested, and analyzed by western blotting. Black and red arrows indicate pro and autolyzed forms of calpain‐1, respectively. […] MIO‐M1 cells were incubated with TRAP1‐targeting siRNAs for 48 h, exposed to hypoxia for 6 h, harvested, and analyzed by qPCR (n = 4). […] Cells were then analyzed by flow cytometry to detect cytoplasmic calcium. […] MIO‐M1 cells were incubated with TRAP1 inhibitors, 3 µM gamitrinib, and 0.5 µM MitoQ, and a cell‐permeable calcium chelator, BAPTA (10 µM), for 6 h as indicated under hypoxia and analyzed by western blotting. […] Data information: Data are expressed as mean ± SEM. […]"}, "[2]": {"tested_on": "HIF1α", "assay": "HIF1α degradation in MIO‐M1 cells under hypoxia (western blotting)", "conditions": "western blotting; for effect of co-treatment on HIF1α degradation triggered by TRAP1 inhibition: MIO‐M1 cells with gamitrinib or MitoQ, 6 h, hypoxia, BAPTA 10 µM, ALLN 10 µM"}, "[3]": {"tested_on": "calpain‐1", "assay": "Calpain‐1 activation (autolysis, western blotting) in MIO‐M1 cells", "conditions": "MIO‐M1 cells with 3 µM gamitrinib or 0.5 µM MitoQ, 6 h, hypoxia; BAPTA 10 µM, ALLN 10 µM", "protocol": "as §1"}, "[4]": {"tested_on": "cytoplasmic Hsp90", "assay": "Cytoplasmic Hsp90 inhibition in MIO-M1 cells (western blotting)", "conditions": "6 hr", "quoted_text": "Cells and tissue samples were lysed using RIPA buffer (50 mM Tris, pH 8.0, 150 mM NaCl, 1% NP‐40, and 0.25% N‐deoxycholate) containing protease and phosphatase inhibitor cocktails (Roche). Lysates were separated by SDS‐PAGE and transferred to PVDF membranes. The membranes were blocked with 10% skim milk prepared in TBST (TBS (50 mM Tris and 150 mM NaCl, pH 7.6) containing 0.05% Tween‐20) for 1 h at RT and incubated with primary antibodies in antibody diluent solution (TBS containing 3 mM sodium azide and 0.1% BSA) overnight at 4 °C. After washing with TBST, the membranes were incubated with secondary antibodies for 1 h in 10% skim milk prepared in TBST. Finally, the membranes were washed three times with TBST, treated with ECL solution (Bio‐Rad; Hercules, CA, USA), and analyzed using a LAS4000 system (GE Healthcare; Chicago, IL, USA).\ninhibitor) and gamitrinib as indicated for 6 hr, harvested, and analyzed by western blotting.\nC) Cytoplasmic Hsp90 inhibition. MIO-M1\ncells were incubated with DMAG (an Hsp90 inhibitor) as indicated for 6 hr under normoxia\nor hypoxia and analyzed by western blotting."}, "[5]": {"tested_on": "calpain", "assay": "Calpain activity assay in MIO‐M1 cells", "conditions": "3 µM gamitrinib or 0.5 µM MitoQ, 6 h under hypoxia, fluorogenic calpain substrate, n = 4", "protocol": "as §1"}, "[6]": {"tested_on": "Trap1 KO MIO-M1 cells", "assay": "TRAP1 inhibitor effects in Trap1 KO MIO‐M1 cells", "protocol": "MIO‐M1 Trap1 KO cell lines were generated using CRISPR/Cas9‐derived RNA‐guided endonucleases (Toolgen; Seoul, Republic of Korea). MIO‐M1 cells were co‐transfected with the Cas9 vector and TRAP1‐sgRNA expression vector (sgRNA sequence 1; 5′‐[…]‐3′ and sequence 2; 5′‐[…]‐3′) using jetPRIME transfection reagent (Polyplus; Illkirch‐Graffenstaden, France). Transfected cells were selected in culture medium containing […] puromycin (Sigma). Single‐cell colonies were collected using a cloning cylinder (I.D. × H 6.4 mm × 8 mm; Sigma) and analyzed using T7 endonuclease I to confirm Trap1 KO.\nSupplementary Figure 16. Calpain-1 autolysis and HIF1α degradation in Trap1 […]\nA) HIF1α degradation and calpain-1 autolysis in Trap1 knockout (KO) MIO-M1 cells. Trap1 KO MIO-M1 cells were generated as described in the Experimental Section and incubated in hypoxia for 6 hr, followed by analysis using western blotting. Under hypoxia, HIF1α degradation and autoproteolysis of calpain-1 were found in Trap1 KO MIO-M1 cells, when compared with wild type (WT) cells. […]\ncell lines were established using MIO-M1 cells. WT and KO cells were incubated with MitoQ for 6 hr under hypoxia and analyzed by western blotting. Trap1 KO reduced the expression of […]\nQuantification of the HIF1α protein level. HIF1α western blot density was analyzed and compared. Data are expressed as mean ± SEM from four independent experiments.\nC) Cytoplasmic calcium concentration. WT and Trap1-KO MIO-M1 cells were labeled with […]\nFluo-4 AM, incubated with 3 μM gamitrinib or 1 μM MitoQ for 6 hr under hypoxia, collected, and analyzed by flow cytometry. Data information: Data are expressed as mean ± SEM.\nStudent t-test, ***P < 0.001; ns, not significant. […]"}},
  "note": "“Also recorded” adds a separate entry of the source. Non-standard residues stand in square brackets, D forms with d. Residues, ends and D or L forms follow the SMILES beside them. *: point of attachment. Nle = CCCC[C@H](N)C(=O)O; Cbz = O=C(OCc1ccccc1)*",
  "data": [
    {"compound": "C/C=C(/C)C(=O)O[C@H]1C(C)=C2[C@H]([C@@H]1OC(=O)CCCCCCC)[C@@](C)(OC(C)=O)C[C@H](OC(=O)CCC)[C@@]1(O)[C@H]2OC(=O)[C@@]1(C)O", "note": "[thapsigargin]", "values": [
      {"measurement": "cytoplasmic calcium", "setting": "[1]", "result": "substantial calcium release"}
    ]},
    {"compound": "CCCC[C@@H](C=O)NC(=O)[C@H](CC(C)C)NC(=O)[C@H](CC(C)C)NC(C)=O", "note": "[ALLN] (Ac-Leu-Leu-[Nle]-aldehyde)", "values": [
      {"measurement": "effect of co-treatment on HIF1α degradation triggered by TRAP1 inhibition", "setting": "[2]", "result": "fully reversed"},
      {"measurement": "effect of co-treatment on calpain‐1 activation triggered by TRAP1 inhibition", "setting": "[3]", "result": "fully reversed"}
    ]},
    {"compound": "CC(=O)N[C@@H](CSC(=O)[C@]1([C@@H](O)C(C)C)NC(=O)[C@H](C)[C@@H]1O)C(=O)O", "note": "[lactacystin]", "values": [
      {"measurement": "effect of co-treatment on HIF1α degradation triggered by TRAP1 inhibition", "setting": "[2]", "result": "not effectively restored; also recorded: did not"}
    ]},
    {"compound": "CO[C@H]1/C=C\\C=C(/C)C(=O)NC2=CC(=O)C(NCCN(C)C)=C(C[C@@H](C)C[C@H](OC)[C@H](O)[C@@H](C)/C=C(\\C)[C@@H]1OC(N)=O)C2=O", "note": "[DMAG, 17‐Dimethyl‐aminothylamino‐17‐demethoxy‐geldanamycin]", "values": [
      {"measurement": "stability of HIF1α", "setting": "[2]; MIO-M1 cells, 6 hr under normoxia or hypoxia", "result": "did not affect"},
      {"measurement": "stress response protein Hsp70 level", "setting": "[4]", "result": "upregulated"}
    ]},
    {"compound": "COC(=O)CNC(=O)C(=O)OC", "note": "[DMOG, dimethyloxalylglycine]", "values": [
      {"measurement": "effect of co-treatment on HIF1α degradation triggered by TRAP1 inhibition", "setting": "[2]", "result": "did not affect; also recorded: unaffected"}
    ]},
    {"compound": "O=C(O)CN(CC(=O)O)c1ccccc1OCCOc1ccccc1N(CC(=O)O)CC(=O)O", "note": "[BAPTA, 1,2‐bis (o‐aminophenoxy) ethane‐N, N, N', N'‐tetraacetic acid]", "values": [
      {"measurement": "effect of co-treatment on HIF1α degradation triggered by TRAP1 inhibition", "setting": "[2]", "result": "fully reversed"},
      {"measurement": "effect of co-treatment on calpain‐1 activation triggered by TRAP1 inhibition", "setting": "[3]", "result": "fully reversed"}
    ]},
    {"compound": "O=C(O)CCC(=O)O", "note": "[succinate]", "values": [
      {"measurement": "effect of co-treatment on HIF1α degradation triggered by TRAP1 inhibition", "setting": "[2]", "result": "did not affect; also recorded: unaffected"}
    ]},
    {"compound": "gamitrinib", "values": [
      {"measurement": "calpain enzyme activity", "setting": "[5]", "result": "Calpain activation"},
      {"measurement": "cytosolic calcium concentration in Trap1−/− cells", "setting": "[6]; 3 μM gamitrinib or 1 μM MitoQ, 6 hr under hypoxia, Fluo-4 AM flow cytometry", "result": "did not affect"},
      {"measurement": "HIF1α expression in Trap1−/− cells", "setting": "[6]; 6 hr under hypoxia, western blotting", "result": "did not affect"},
      {"measurement": "calpain‐1 activation in Trap1−/− cells", "setting": "[6]; hypoxia", "result": "did not affect"}
    ]},
    {"compound": "CC(C)C[C@@H](C=O)NC(=O)[C@H](CC(C)C)NC(=O)[C@H](CC(C)C)NC(=O)OCc1ccccc1", "note": "[MG132] (Cbz-Leu-Leu-Leu-aldehyde)", "values": [
      {"measurement": "effect of co-treatment on HIF1α degradation triggered by TRAP1 inhibition", "setting": "[2]", "result": "completely restored; also recorded: completely blocked"}
    ]}
  ]
}
